Assay results: patent publication US20250195536A1, “BICYCLOOCTANE KRAS INHIBITORS” (Incyte Corporation, priority 2023, published 2025)

Columns and labels:
KRAS G12D = KRAS G12D (Homo sapiens, UniProt P01116, G12D); experiment: GDP-GTP exchange assay (KRAS G12D); type: biochemical; settings: bodipy-GDP/GppNHp exchange with SOS1; 4 h pre-incubation, 2 h reaction
Method: (§1) The inhibitor potency of the exemplified compounds was determined in a fluorescence based guanine nucleotide exchange assay, which measures the exchange of bodipy-GDP (fluorescently labeled GDP) for GppNHp (Non-hydrolyzable GTP analog) to generate the active state of KRAS in the presence of SOS1 (guanine nucleotide exchange factor). Inhibitors were serially diluted in DMSO and a volume of 0.1 μL was transferred to the wells of a black low volume 384-well plate. 5 μL/well volume of bodipy-loaded KRAS G12D diluted to 2.5 nM in assay buffer (25 mM Hepes pH 7.5, 50 mM NaCl, 10 mM MgCl2 and 0.01% Brij-35) was added to the plate and pre-incubated with inhibitor for 4 h at r.t. Appropriate controls (enzyme with no inhibitor or with a G12D inhibitor) were included on the plate. The exchange was initiated by the addition of a 5 μL/well volume containing 1 mM GppNHp and 300 nM SOS1 in assay buffer. The 10 μL/well reaction concentration of the bodipy-loaded KRAS G12D, GppNHp, and SOS1 were 2.5 nM, 500 μM, and 150 nM, respectively. The reaction plates were incubated at r.t. for 2 h, a time estimated for complete GDP-GTP exchange in the absence of inhibitor. For the KRAS G12V mutant, similar guanine nucleotide exchange assays were used with 2.5 nM as final concentration for the bodipy loaded KRAS proteins and 3 h incubation after adding GppNHp-SOS1 mixture. A cyclic peptide described to selectively bind G12D mutant (Sakamoto et al., BBRC 484.3 (2017), 605-611) or internal compounds with confirmed binding were used as positive controls in the assay plates. Fluorescence intensities were measured on a PheraStar plate reader instrument (BMG Labtech) with excitation at 485 nm and emission at 520 nm.
(§2) Either GraphPad prism or Genedata Screener SmartFit was used to analyze the data. The IC50 values were derived by fitting the data to a four parameter logistic equation producing a sigmoidal dose-response curve with a variable Hill coefficient.
(§3) The symbol “⬆” indicates IC50 100 nM, “⬆⬆” indicates IC50 >100 nM but ≤1 μM; and “⬆⬆⬆” indicates IC50 is >1 μM but ≤5 μM, “⬆⬆⬆⬆” indicates IC50 is >5 μM but ≤10 μM. “NA” indicates IC50 not available.

KRAS G12V = KRAS G12V (Homo sapiens, UniProt P01116, G12V); experiment: GDP-GTP exchange assay (KRAS G12V); type: biochemical; settings: bodipy-GDP/GppNHp exchange with SOS1; 3 h incubation after GppNHp-SOS1
Method: as §1, §2, §3
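Further: one dagger IC50 up to 100 nM and two daggers above 100 nM up to 1 μM.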

KRAS G12D, sequence (P01116 1-188 isoform P01116-2 G12D): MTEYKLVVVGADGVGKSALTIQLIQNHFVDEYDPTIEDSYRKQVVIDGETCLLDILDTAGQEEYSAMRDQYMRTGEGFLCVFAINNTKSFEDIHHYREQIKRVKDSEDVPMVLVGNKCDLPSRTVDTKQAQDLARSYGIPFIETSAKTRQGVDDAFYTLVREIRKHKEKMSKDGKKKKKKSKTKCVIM
KRAS G12V, sequence (P01116 1-188 isoform P01116-2 G12V): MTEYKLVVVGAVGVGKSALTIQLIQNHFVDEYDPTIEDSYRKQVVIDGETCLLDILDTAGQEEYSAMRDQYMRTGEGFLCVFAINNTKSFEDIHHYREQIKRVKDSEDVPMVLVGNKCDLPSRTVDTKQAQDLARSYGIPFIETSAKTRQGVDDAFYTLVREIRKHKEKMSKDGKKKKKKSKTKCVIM

Structure (SMILES)	G12D_exchange (KRAS_G12D exchange assay IC50) (KRAS G12D)	G12V_exchange (KRAS_G12V exchange assay IC50) (KRAS G12V)
Cc1nc2c(F)c(-c3cccc(Cl)c3Cl)c(CCC#N)cc2c2c1cc([C@H]1[C@H]3C[C@H](CN(c4cnc5cccnc5c4)C3)N1C(=O)C1CC1)n2[C@H]1[C@H]2CN[C@@H]1C2 (atropisomer, axis not shown; (Ra)) [Example 6, 3-((Ra)-1-((1R,4R,5S)-2-azabicyclo[2.1.1]hexan-5-yl)-2-((1S,5R,7R)-6-(cyclopropanecarbonyl)-3-(1,5-naphthyridin-3-yl)-3,6-diazabicyclo[3.2.1]octan-7-yl)-7-(2,3-dichlorophenyl)-6-fluoro-4-methyl-1H-pyrrolo[3,2-c]quinolin-8-yl)propanenitrile]	†	†
Cc1nc2c(F)c(-c3cccc(Cl)c3Cl)c(CCC#N)cc2c2c1cc([C@H]1[C@H]3C[C@H](CN(c4cnn(C)c4)C3)N1C(=O)C1CC1)n2[C@H]1[C@H]2CN[C@@H]1C2 (atropisomer, axis not shown; (Ra)) [Example 11, 3-((Ra)-1-((1R,4R,5S)-2-azabicyclo[2.1.1]hexan-5-yl)-2-((1S,5R,7R)-6-(cyclopropanecarbonyl)-3-(1-methyl-1H-pyrazol-4-yl)-3,6-diazabicyclo[3.2.1]octan-7-yl)-7-(2,3-dichlorophenyl)-6-fluoro-4-methyl-1H-pyrrolo[3,2-c]quinolin-8-yl)propanenitrile]	†	†
Cc1nc2c(F)c(-c3cccc(Cl)c3Cl)c(CCC#N)cc2c2c1cc([C@H]1[C@H]3C[C@H](CN(c4ccccc4C(F)(F)F)C3)N1C(=O)C1CC1)n2[C@H]1[C@H]2CN[C@@H]1C2 (atropisomer, axis not shown; (Ra)) [Example 16, 3-((Ra)-1-((1R,4R,5S)-2-azabicyclo[2.1.1]hexan-5-yl)-2-((1S,5R,7R)-6-(cyclopropanecarbonyl)-3-(2-(trifluoromethyl)phenyl)-3,6-diazabicyclo[3.2.1]octan-7-yl)-7-(2,3-dichlorophenyl)-6-fluoro-4-methyl-1H-pyrrolo[3,2-c]quinolin-8-yl)propanenitrile]	†††	†††
Cc1nc2c(F)c(-c3cccc(Cl)c3Cl)c(CCC#N)cc2c2c1cc([C@H]1[C@H]3C[C@H](CN(c4cc(C(F)(F)F)cc(C(F)(F)F)c4)C3)N1C(=O)C1CC1)n2[C@H]1[C@H]2CN[C@@H]1C2 (atropisomer, axis not shown; (Ra)) [Example 18, 3-((Ra)-1-((1R,4R,5S)-2-azabicyclo[2.1.1]hexan-5-yl)-2-((1S,5R,7R)-3-(3,5-bis(trifluoromethyl)phenyl)-6-(cyclopropanecarbonyl)-3,6-diazabicyclo[3.2.1]octan-7-yl)-7-(2,3-dichlorophenyl)-6-fluoro-4-methyl-1H-pyrrolo[3,2-c]quinolin-8-yl)propanenitrile]	††	†
Cc1nc2c(F)c(-c3cccc(Cl)c3Cl)c(CCC#N)cc2c2c1cc([C@H]1[C@H]3C[C@H](CN(c4cc(C(C)(F)F)ncn4)C3)N1C(=O)CO)n2[C@H]1[C@H]2CN[C@@H]1C2 (atropisomer, axis not shown; (Ra)) [Example 129, 3-((Ra)-1-((1R,4R,5S)-2-azabicyclo[2.1.1]hexan-5-yl)-7-(2,3-dichlorophenyl)-2-((1 S,5R,7R)-3-(6-(1,1-difluoroethyl)pyrimidin-4-yl)-6-(2-hydroxyacetyl)-3,6-diazabicyclo[3.2.1]octan-7-yl)-6-fluoro-4-methyl-1H-pyrrolo[3,2-c]quinolin-8-yl)propanenitrile]		†
